{"source": "a melting point compilation (Tetko et al.; mined from patent text by program, amines drawn as free bases though some values may be those of a salt)"}
{"units": {"melting point": "°C"}}
{"smiles": "CCOC(=O)c1c(C(F)(F)F)nc(C(F)(F)F)c(C)c1O", "melting point": "23 to 24.5"}
{"smiles": "O=C(c1ccccc1)N1N=CCC1c1ccccc1", "note": "(stereo not given)", "melting point": "105 to 106"}
{"smiles": "CCC(=O)C(CCCCc1ccc(O)cc1)C(=O)CC", "melting point": "67 to 69"}
{"smiles": "Cc1nc2c3c(ccn2c1C)C(=O)CC(c1ccsc1)N3", "note": "(stereo not given)", "melting point": "176 to 177"}
{"smiles": "C#CC1(O)c2ccccc2COc2ccccc21", "note": "(stereo not given)", "melting point": "93 to 94"}
{"smiles": "O=c1[nH]c2ccc3c(c2[nH]c1=O)CNCC3", "melting point": "294 to 297"}
{"smiles": "Cc1ccc(S(=O)(=O)N2CCCC2c2ccccc2Cl)cc1", "note": "(racemic)", "melting point": 149}
{"smiles": "O=c1[nH]c2ccccc2n1CCNCc1ccc(CN2CCCCC2)o1", "melting point": "83 to 85"}
{"smiles": "CCOC(=O)c1cccc(Nc2ncnc3[nH]cc(C(=O)c4ccccc4)c23)c1", "melting point": "256 to 258"}
{"smiles": "COc1ccc(OCC(O)CN2CCC(N3CCNC3=O)CC2)cc1", "note": "(stereo not given)", "melting point": "148 to 150"}
{"smiles": "CCOC(=O)C(C)Cc1ccc(-n2c(C)nn(-c3ccc(C#N)cc3)c2=O)cc1", "note": "(stereo not given)", "melting point": "124 to 128"}
{"smiles": "Cc1cc(Nc2cncc(-c3ccccc3)n2)n[nH]1", "melting point": "232 to 234"}
{"smiles": "Cn1cc(F)cnc1=O", "melting point": "177 to 178"}
{"smiles": "COc1cc(OC)c2c(=O)[nH]c(-c3cc(C)c(OCC(C)(C)O)c(C)c3)cc2c1", "melting point": "252 to 254"}
{"smiles": "CCOC(=O)c1cc2cc(-c3ccccc3)ccc2nn1", "melting point": "160 to 162"}
{"smiles": "O=Cc1ccc(OCc2ccccc2)cn1", "melting point": "68 to 70"}
{"smiles": "CCN(CC)c1ccc(NC(=O)c2ccc(C)c(Nc3nccc(-c4cccnc4)n3)c2)cc1C(F)(F)F", "melting point": "128 to 131"}
{"smiles": "CCN(CC)C(=O)c1cc(-c2ccc(OC)cc2)ccc1OC", "melting point": "58 to 60"}
{"smiles": "CNC(=O)N(O)C(C)C#Cc1cccc(Oc2ccccn2)c1", "note": "(stereo not given)", "melting point": "147 to 149"}
{"smiles": "O=Cc1cc(OCCCC(=O)N(CCO)CCCCC2CCCC2)ccc1[N+](=O)[O-]", "melting point": "107 to 108"}
{"smiles": "COc1ccc(C2=NN(C3CCN(C(=O)CN4C(=O)CCC4=O)CC3)C(=O)C(C)(C)C2)c2c1OC(C)(C)C2", "melting point": "240 to 241"}
{"smiles": "COc1ccc(N2CCN(c3c(C)c(C)c4c(c3C)CC(C)(CC#N)O4)CC2)cc1", "note": "(stereo not given)", "melting point": "161 to 163"}
{"smiles": "CCOC(=O)C(=CN(C)C)C(=O)c1cc2cc(F)c(Cl)cc2nc1Cl", "melting point": 122}
{"smiles": "CC(=O)N1c2ccc(C#N)cc2C(Nc2ccc(Cl)cc2)CC1C", "note": "(stereo not given)", "melting point": "212 to 213"}
{"smiles": "O=C(O)CN1C(=O)c2cccc3c(Cl)ccc(c23)C1=O", "melting point": 260}
{"smiles": "NS(=O)(=O)c1ccc(C2CCN(c3cc([N+](=O)[O-])ccn3)CC2)cc1", "melting point": "215 to 217"}
{"smiles": "CC(C)(C)OC(=O)CCc1ccnc(-c2nc(=O)c3ccc(Cl)cc3s2)c1", "melting point": 152}
{"smiles": "COc1ccc(Cc2nccc3ccccc23)cc1OC", "melting point": "146 to 147"}
{"smiles": "CC#CCOc1cc(-c2ccc(F)cc2F)ncn1", "melting point": 63.9}
{"smiles": "CCOC(=O)c1c(C)nn2c(-c3ccc(Cl)cc3Cl)c(C)ccc12", "melting point": "120 to 124"}
{"smiles": "CC(C)n1nnc(-c2cnc3ccccn3c2=O)n1", "melting point": "146 to 148"}
{"smiles": "O=C(c1cc2cc3[nH]c(=O)[nH]c3cc2[nH]1)N1CCC(Cc2ccccc2)CC1", "melting point": "> 270"}
{"smiles": "Cn1cc(CS(C)(=O)=O)c(=O)c2ccc(C(F)(F)F)cc21", "melting point": "240 to 242"}
{"smiles": "Cc1nn(C)c(-c2ccccc2)c1NC(N)=S", "melting point": "258 to 260"}
{"smiles": "C/C(=C\\c1ccc(C(=O)OCc2ccccc2)cc1)c1ccc2c(c1)C(C)(C)CCC2(C)C", "melting point": "113 to 114"}
{"smiles": "COc1ccc([C@@H]2CN(C)CC[C@@H]2NC(=O)c2ccc(Cl)c(Cl)c2)cc1OC", "note": "(relative stereo)", "melting point": "134 to 135"}
{"smiles": "CCOc1ccc(C=CC(C)=O)cc1OC", "melting point": "95 to 97"}
{"smiles": "O=C1c2cc(OCc3ccc4cc(F)ccc4n3)ccc2OCC1Oc1cccnc1", "note": "(stereo not given)", "melting point": 188}
{"smiles": "CS(=O)(=O)OCCc1ccc(OCc2coc(/C=C/c3ccccc3)n2)cc1", "melting point": "121 to 122"}
{"smiles": "CCc1ccc2oc3cc(C#N)cnc3c(=O)c2c1", "melting point": "183 to 185"}
{"smiles": "CC(=O)c1cc(N=c2cc(C)n(C)c(N)n2)cc(C(C)=O)c1", "melting point": "219 to 220"}
{"smiles": "O=C(Nc1cccc(F)c1)C1C(=O)Sc2ccccc21", "note": "(stereo not given)", "melting point": "169 to 171"}
{"smiles": "CCC1=C(C)CN(C(=O)NC2COc3cc(OC)c(S(=O)(=O)NC(=S)NC)cc3C2)C1=O", "note": "(stereo not given)", "melting point": 205}
{"smiles": "CC(=O)NC(C)COC1CCC(c2nc3ccc(OCC4CC4)cc3o2)CC1", "note": "(stereo not given)", "melting point": "131 to 132"}
{"smiles": "CCCCN(Cc1ccc2cc(O)ccc2c1)C(=O)c1c(C)oc2ccccc12", "melting point": "126 to 128"}
{"smiles": "COc1ccc(P(=O)(c2ccc(OC)cc2)c2ccc(OC)cc2)cc1", "melting point": 145}
{"smiles": "Cc1ccc(S(=O)(=O)CNc2nc(C)cc(C)n2)cc1", "melting point": "191 to 194"}
{"smiles": "O=C(NCCc1ccccn1)Nc1cc(N2CC(c3ccccc3)CC2=O)ccn1", "note": "(stereo not given)", "melting point": "202 to 204"}
{"smiles": "CCOC(=O)C1C(=O)N(C)C(=S)N(C)C1=O", "melting point": "90 to 93"}
{"smiles": "Cc1cccc(OC2=NS(=O)(=O)N=C(Oc3cccc(C)c3)N2C)c1", "melting point": "221 to 223"}
{"smiles": "CC(C)C(CS(=O)(=O)c1ccc(-c2cccc(CNC(=O)c3nc4ccccc4c(=O)[nH]3)c2)cc1)N(O)C(N)=O", "note": "(stereo not given)", "melting point": "193 to 195"}
{"smiles": "CSC(=S)NCc1ccc(O)cc1", "melting point": "90 to 91"}
{"smiles": "CN(C)C1(c2ccccc2)CCC(NC(=S)NCCCc2ccccc2)CC1", "note": "(stereo not given)", "melting point": "75 to 80"}
{"smiles": "C=CCn1c(C)nc2c3c(c(C(=O)OCC)cc21)C(=O)CC1(Cc2ccccc2C1)N3", "melting point": "183 to 184"}
{"smiles": "CS(=O)(=O)Oc1ccc(CCOc2ccc(-c3ncccc3C(=O)O)cc2C#N)cc1", "melting point": "85 to 86"}
{"smiles": "CCC(CO)Nc1ccc(Cl)cc1[N+](=O)[O-]", "note": "(stereo not given)", "melting point": 45}
{"smiles": "COc1cc2c(cc1OC)C(C(CO)CO)NCC2", "note": "(stereo not given)", "melting point": 140}
{"smiles": "Cc1ccc(C(=O)Nc2c(NC(=O)CN3CCN(c4ccccc4)CC3)ccc3c2C(=O)c2ccccc2C3=O)cc1", "melting point": "270 to 271"}
{"smiles": "CCN1CCC(NC(=O)c2ccc(NC(C)=O)cc2)N1CC", "note": "(stereo not given)", "melting point": "178 to 180"}
{"smiles": "COCc1cccc(C(O)c2nc(OC)cc(OC)n2)c1N", "note": "(stereo not given)", "melting point": "40 to 42"}
{"smiles": "CC(=O)Nc1ccc(C=CC(=O)C2C(=O)OC(=O)C(C(C)=O)=C2O)cc1", "note": "(stereo not given)", "melting point": "230 to 231"}
{"smiles": "CCCCCOc1ccc(C=C2SC(=S)N(CC(=O)O)C2=O)cc1OCc1ccccc1", "melting point": "229 to 234"}
{"smiles": "Cc1c(C(=O)c2ccccc2F)n(N2C(=O)c3ccccc3C2=O)c2ccccc12", "melting point": "197 to 199"}
{"smiles": "COC(=O)c1cc(C(=O)c2ncc3ccc(NC(=O)OC(C)(C)C)cn23)ccc1[N+](=O)[O-]", "melting point": 182}
{"smiles": "Cc1c(C)c2c(c(C)c1N)C(c1ccc(F)cc1)C(C)(C)O2", "note": "(stereo not given)", "melting point": "126 to 127"}
{"smiles": "CC(C)C1Cc2cnc3c(c2C1(O)CCN)CCO3", "note": "(stereo not given)", "melting point": "142 to 143"}
{"smiles": "CCCc1nc2c(N)nc3cc(-c4ccccc4)ccc3c2n1CCCC(C)N(OC)C(=O)NC(C)C", "note": "(stereo not given)", "melting point": "101 to 103"}
{"smiles": "O=C(O)CCCc1ccc(CNC(=O)C2Cc3ccccc3N2S(=O)(=O)c2ccc(-c3cccc(C(F)(F)F)c3)cc2)cc1", "note": "(stereo not given)", "melting point": 75}
{"smiles": "N=C(Nc1ccc(CCCC(=O)Nc2ccccc2)cc1)c1cccs1", "melting point": "229 to 231"}
{"smiles": "CC(=O)NCC1CN(c2ccc(N3CCN(c4nnc(C(N)=O)s4)C(F)C3)cc2)C(=O)O1", "note": "(stereo not given)", "melting point": "230 to 232"}
